Experimental data taken from paper PMC5218480 (PLoS ONE, 2017).

System: MV-4-11 cells
Experiment: Gene expression microarray analysis (Affymetrix PrimeView) and GSEA
Type: cell-based, human
Set-up: RFU PODN (11730768_x_at) / Fold change /veh PODN (11730768_x_at) / RFU LINC00158 (11744669_a_at) / Fold change /veh LINC00158 (11744669_a_at) / RFU DUSP10 (11751237_a_at) / Fold change /veh DUSP10 (11751237_a_at) / RFU ID3 (11757404_x_at) / Fold change /veh ID3 (11757404_x_at) / RFU PLEKHG5 (11737974_s_at) / Fold change /veh PLEKHG5 (11737974_s_at) / RFU LRRC4B (11730491_at) / Fold change /veh LRRC4B (11730491_at) / RFU GIMAP4 (11747438_a_at) / Fold change /veh GIMAP4 (11747438_a_at) / RFU KRT8 (11758183_x_at) / Fold change /veh KRT8 (11758183_x_at) / RFU CNN1 (11734310_a_at) / Fold change /veh CNN1 (11734310_a_at) / RFU VPS37D (11726825_at) / Fold change /veh VPS37D (11726825_at) / RFU C10orf10 (11716522_x_at) / Fold change /veh C10orf10 (11716522_x_at) / RFU KIR2DL2 /// KIR2DL4 /// KIR2DL5A /// KIR2DL5B /// KIR2DS1 /// KIR2DS2 /// KIR2DS3 /// KIR2DS4 /// KIR3DL3 /// KIR3DL3 /// KIR3DS1 (11738374_at) / Fold change /veh KIR2DL2 /// KIR2DL4 /// KIR2DL5A /// KIR2DL5B /// KIR2DS1 /// KIR2DS2 /// KIR2DS3 /// KIR2DS4 /// KIR3DL3 /// KIR3DL3 /// KIR3DS1 (11738374_at) / RFU C1QL1 (11718748_at) / Fold change /veh C1QL1 (11718748_at) / RFU TMPRSS4 (11747572_a_at) / Fold change /veh TMPRSS4 (11747572_a_at) / RFU HAMP (11756126_x_at) / Fold change /veh HAMP (11756126_x_at) / RFU RNFT2 (11725882_a_at) / Fold change /veh RNFT2 (11725882_a_at) / RFU NR4A2 (11747474_a_at) / Fold change /veh NR4A2 (11747474_a_at) / RFU ABCC12 (11746883_a_at) / Fold change /veh ABCC12 (11746883_a_at) / RFU TMEM136 (11760407_x_at) / Fold change /veh TMEM136 (11760407_x_at) / RFU CLDN22 /// WWC2 (11732394_at) / Fold change /veh CLDN22 /// WWC2 (11732394_at) / RFU HLA-DPB1 (11760878_x_at) / Fold change /veh HLA-DPB1 (11760878_x_at) / RFU SPINT1 (11716480_a_at) / Fold change /veh SPINT1 (11716480_a_at) / RFU GAP43 (11754022_s_at) / Fold change /veh GAP43 (11754022_s_at) / RFU A4GNT (11735810_at) / Fold change /veh A4GNT (11735810_at) / RFU PRB3 (11715151_x_at) / Fold change /veh PRB3 (11715151_x_at) / RFU TUBB4B (11761932_at) / Fold change /veh TUBB4B (11761932_at) / RFU CAPN14 (11732068_a_at) / Fold change /veh CAPN14 (11732068_a_at) / RFU TMCC2 (11721928_a_at) / Fold change /veh TMCC2 (11721928_a_at) / RFU IRGQ (11745062_a_at) / Fold change /veh IRGQ (11745062_a_at) / RFU FAM174B (11720279_a_at) / Fold change /veh FAM174B (11720279_a_at) / RFU TMPRSS4 (11748680_a_at) / Fold change /veh TMPRSS4 (11748680_a_at) / RFU FAM212B (11763350_a_at) / Fold change /veh FAM212B (11763350_a_at) / RFU PLEKHG5 (11743358_a_at) / Fold change /veh PLEKHG5 (11743358_a_at) / RFU ZSCAN30 (11745921_a_at) / Fold change /veh ZSCAN30 (11745921_a_at) / RFU CMKLR1 (11741424_a_at) / Fold change /veh CMKLR1 (11741424_a_at) / RFU LOC101060620 /// MAPK8IP1 (11723275_at) / Fold change /veh LOC101060620 /// MAPK8IP1 (11723275_at) / RFU SPTSSB (11747773_x_at) / Fold change /veh SPTSSB (11747773_x_at) / RFU PRSS12 (11739890_at) / Fold change /veh PRSS12 (11739890_at) / RFU BIN1 (11741810_x_at) / Fold change /veh BIN1 (11741810_x_at) / RFU WNT11 (11732464_a_at) / Fold change /veh WNT11 (11732464_a_at) / RFU C10orf10 (11716521_a_at) / Fold change /veh C10orf10 (11716521_a_at) / RFU C5orf56 (11738089_at) / Fold change /veh C5orf56 (11738089_at) / RFU CYB561 (11721691_x_at) / Fold change /veh CYB561 (11721691_x_at) / RFU ANKRD19P (11752326_a_at) / Fold change /veh ANKRD19P (11752326_a_at) / RFU OR2T12 /// OR2T33 /// OR2T8 (11738714_s_at) / Fold change /veh OR2T12 /// OR2T33 /// OR2T8 (11738714_s_at) / RFU VCAN (11748164_a_at) / Fold change /veh VCAN (11748164_a_at) / RFU JSRP1 (11732532_at) / Fold change /veh JSRP1 (11732532_at) / RFU KRTAP10-11 (11738290_x_at) / Fold change /veh KRTAP10-11 (11738290_x_at) / RFU MYO3A (11730013_a_at) / Fold change /veh MYO3A (11730013_a_at) / RFU EBF3 (11725865_a_at) / Fold change /veh EBF3 (11725865_a_at) / RFU CAMK2N1 (11719241_x_at) / Fold change /veh CAMK2N1 (11719241_x_at) / RFU C5orf56 (11738088_a_at) / Fold change /veh C5orf56 (11738088_a_at) / RFU OLFML3 (11715873_a_at) / Fold change /veh OLFML3 (11715873_a_at) / RFU LOC100653217 /// NTM (11731650_a_at) / Fold change /veh LOC100653217 /// NTM (11731650_a_at) / RFU MAPK11 (11762145_a_at) / Fold change /veh MAPK11 (11762145_a_at) / RFU FIZ1 (11724087_x_at) / Fold change /veh FIZ1 (11724087_x_at) / RFU OASL (11726364_x_at) / Fold change /veh OASL (11726364_x_at) / RFU SOX15 (11748057_x_at) / Fold change /veh SOX15 (11748057_x_at) / RFU CD79A (11719716_a_at) / Fold change /veh CD79A (11719716_a_at) / RFU HIST1H1D (11736915_at) / Fold change /veh HIST1H1D (11736915_at) / RFU CASKIN2 (11723855_a_at) / Fold change /veh CASKIN2 (11723855_a_at) / RFU LOC730098 (11760151_x_at) / Fold change /veh LOC730098 (11760151_x_at) / RFU OR4N2 (11742367_at) / Fold change /veh OR4N2 (11742367_at) / RFU PRRT2 (11749266_a_at) / Fold change /veh PRRT2 (11749266_a_at) / RFU SNX32 (11753110_a_at) / Fold change /veh SNX32 (11753110_a_at) / RFU CDHR5 (11726645_a_at) / Fold change /veh CDHR5 (11726645_a_at) / RFU RCAN1 (11760418_a_at) / Fold change /veh RCAN1 (11760418_a_at) / RFU FAM167A (11723789_a_at) / Fold change /veh FAM167A (11723789_a_at) / RFU FAM26E (11764081_at) / Fold change /veh FAM26E (11764081_at) / RFU ISYNA1 (11749810_s_at) / Fold change /veh ISYNA1 (11749810_s_at) / RFU ACY1 (11761880_at) / Fold change /veh ACY1 (11761880_at) / RFU 11764098_at / Fold change /veh 11764098_at / RFU SAMD14 (11745864_x_at) / Fold change /veh SAMD14 (11745864_x_at) / RFU NPB (11741838_a_at) / Fold change /veh NPB (11741838_a_at) / RFU TMPRSS6 (11731388_a_at) / Fold change /veh TMPRSS6 (11731388_a_at) / RFU KRTAP10-2 (11738614_at) / Fold change /veh KRTAP10-2 (11738614_at) / RFU ARHGAP8 /// PRR5-ARHGAP8 (11727945_x_at) / Fold change /veh ARHGAP8 /// PRR5-ARHGAP8 (11727945_x_at) / RFU KRTAP5-7 /// NADSYN1 (11734609_at) / Fold change /veh KRTAP5-7 /// NADSYN1 (11734609_at) / RFU RASL12 (11751679_a_at) / Fold change /veh RASL12 (11751679_a_at) / RFU CDKN2B (11736163_a_at) / Fold change /veh CDKN2B (11736163_a_at) / RFU PRF1 (11729649_at) / Fold change /veh PRF1 (11729649_at) / RFU, ZNF638 /// ZNF638-IT1 / Fold change vs veh, ZNF638 /// ZNF638-IT1 / RFU, PANK3 / Fold change vs veh, PANK3 / RFU, SH3YL1 / Fold change vs veh, SH3YL1 / RFU, ZEB2 / Fold change vs veh, ZEB2 / RFU, NRIP1 / Fold change vs veh, NRIP1 / RFU, PTTG1IP / Fold change vs veh, PTTG1IP / RFU, CAPN2 / Fold change vs veh, CAPN2 / RFU, MED14 / Fold change vs veh, MED14 / RFU, SNORA58 / Fold change vs veh, SNORA58 / RFU, C1orf63 / Fold change vs veh, C1orf63 / RFU, LRRFIP1 / Fold change vs veh, LRRFIP1 / RFU, NDUFAF7 / Fold change vs veh, NDUFAF7 / RFU, SLC12A2 / Fold change vs veh, SLC12A2 / RFU, IBTK / Fold change vs veh, IBTK / RFU, ESF1 / Fold change vs veh, ESF1 / Fold change vs veh, TMEM50B / RFU, TAOK1 / Fold change vs veh, TAOK1 / RFU, ACBD3 / Fold change vs veh, ACBD3 / RFU, TMA16 / Fold change vs veh, TMA16 / RFU, RWDD3 / Fold change vs veh, RWDD3 / RFU, BCAT1 / Fold change vs veh, BCAT1 / RFU, EDEM3 / Fold change vs veh, EDEM3 / RFU, TMEM33 / Fold change vs veh, TMEM33 / RFU, WDR75 / Fold change vs veh, WDR75 / RFU, AHCTF1 / Fold change vs veh, AHCTF1 / RFU, TFRC / Fold change vs veh, TFRC / RFU, ZDHHC17 / Fold change vs veh, ZDHHC17 / RFU, NOM1 / Fold change vs veh, NOM1 / RFU, ARL8B / Fold change vs veh, ARL8B / RFU, ZBTB11 / Fold change vs veh, ZBTB11 / RFU, TAMM41 / Fold change vs veh, TAMM41 / RFU, KIAA1704 /// LOC100996395 / Fold change vs veh, KIAA1704 /// LOC100996395 / RFU, ING1 / Fold change vs veh, ING1 / RFU, TRMT61B / Fold change vs veh, TRMT61B / RFU, FUBP3 / Fold change vs veh, FUBP3 / RFU, TP53 / Fold change vs veh, TP53 / RFU, TNKS2 / Fold change vs veh, TNKS2 / RFU, ZFP14 / Fold change vs veh, ZFP14 / RFU, ACTR2 / Fold change vs veh, ACTR2 / RFU, PPP3R1 / Fold change vs veh, PPP3R1 / RFU, PIK3R1 / Fold change vs veh, PIK3R1 / RFU, HNRNPA1 / Fold change vs veh, HNRNPA1 / RFU, RNF170 / Fold change vs veh, RNF170 / RFU, ZNF28 / Fold change vs veh, ZNF28 / RFU, RNGTT / Fold change vs veh, RNGTT / RFU, OGT / Fold change vs veh, OGT / RFU, BRD1 / Fold change vs veh, BRD1 / RFU, MARS / Fold change vs veh, MARS / RFU, ZNF655 / Fold change vs veh, ZNF655 / RFU, FAHD1 / Fold change vs veh, FAHD1 / RFU, BDP1 / Fold change vs veh, BDP1 / RFU, LRRCC1 / Fold change vs veh, LRRCC1 / RFU, ARID1A / Fold change vs veh, ARID1A / RFU, ZNF146 / Fold change vs veh, ZNF146 / RFU, ZNF330 / Fold change vs veh, ZNF330 / RFU, GPN3 / Fold change vs veh, GPN3 / RFU, C9orf123 / Fold change vs veh, C9orf123 / RFU, N4BP2L2 / Fold change vs veh, N4BP2L2 / RFU, ARFIP1 / Fold change vs veh, ARFIP1 / RFU, FAM179B / Fold change vs veh, FAM179B / RFU, BCL10 / Fold change vs veh, BCL10 / RFU, UHRF1BP1L / Fold change vs veh, UHRF1BP1L / RFU, BET1 / Fold change vs veh, BET1 / RFU, CNOT2 / Fold change vs veh, CNOT2 / RFU, ZNF268 / Fold change vs veh, ZNF268 / Fold change vs veh, ZNF507 / RFU, DGCR2 / Fold change vs veh, DGCR2 / RFU, WDSUB1 / Fold change vs veh, WDSUB1 / Fold change vs veh, HSP90B1 /// MIR3652 / RFU, ADSS / Fold change vs veh, ADSS / RFU, GK / Fold change vs veh, GK / RFU, ZNF148 / Fold change vs veh, ZNF148 / RFU, TAF9 / Fold change vs veh, TAF9 / RFU, SLC1A5 / Fold change vs veh, SLC1A5 / RFU, SLMO2 / Fold change vs veh, SLMO2 / RFU, ABCC4 / Fold change vs veh, ABCC4 / RFU, LOC101060439 /// RAP1B / Fold change vs veh, LOC101060439 /// RAP1B / RFU, RFX7 / Fold change vs veh, RFX7 / RFU, GTPBP10 / Fold change vs veh, GTPBP10 / RFU, CNEP1R1 / Fold change vs veh, CNEP1R1 / RFU, BIVM-ERCC5 /// ERCC5 / Fold change vs veh, BIVM-ERCC5 /// ERCC5 / RFU, ILF3 / Fold change vs veh, ILF3 / RFU 11762660_at / Fold change /veh 11762660_at / RFU VCAN (11757783_s_at) / Fold change /veh VCAN (11757783_s_at) / RFU DDX43 (11728927_at) / Fold change /veh DDX43 (11728927_at) / RFU KRT8 (11758188_x_at) / Fold change /veh KRT8 (11758188_x_at) / RFU NKD1 (11759106_at) / Fold change /veh NKD1 (11759106_at) / RFU SRD5A1 (11742802_a_at) / Fold change /veh SRD5A1 (11742802_a_at) / RFU TPSAB1 /// TPSB2 (11721975_s_at) / Fold change /veh TPSAB1 /// TPSB2 (11721975_s_at) / RFU GSTM3 (11746129_a_at) / Fold change /veh GSTM3 (11746129_a_at) / RFU IL23R (11737362_x_at) / Fold change /veh IL23R (11737362_x_at) / RFU TMEM51 (11727254_a_at) / Fold change /veh TMEM51 (11727254_a_at) / RFU PIWIL2 (11732686_x_at) / Fold change /veh PIWIL2 (11732686_x_at) / RFU ORM1 (11744905_x_at) / Fold change /veh ORM1 (11744905_x_at) / RFU CCDC152 (11743942_at) / Fold change /veh CCDC152 (11743942_at) / RFU ECM1 (11717891_a_at) / Fold change /veh ECM1 (11717891_a_at) / RFU IL23R (11748794_a_at) / Fold change /veh IL23R (11748794_a_at) / RFU TNFAIP8L3 (11732012_x_at) / Fold change /veh TNFAIP8L3 (11732012_x_at) / RFU MBOAT4 (11741988_at) / Fold change /veh MBOAT4 (11741988_at) / RFU 11764193_at / Fold change /veh 11764193_at / RFU TMEM53 (11763286_at) / Fold change /veh TMEM53 (11763286_at) / RFU MAGEB2 (11727129_at) / Fold change /veh MAGEB2 (11727129_at) / RFU TMEM200A (11744735_a_at) / Fold change /veh TMEM200A (11744735_a_at) / RFU CCDC152 (11751479_a_at) / Fold change /veh CCDC152 (11751479_a_at) / RFU FAM211A (11726209_a_at) / Fold change /veh FAM211A (11726209_a_at) / RFU RGS16 (11746705_a_at) / Fold change /veh RGS16 (11746705_a_at) / RFU VCAN (11755009_s_at) / Fold change /veh VCAN (11755009_s_at) / RFU RHOB (11743442_s_at) / Fold change /veh RHOB (11743442_s_at) / RFU RGS16 (11720943_a_at) / Fold change /veh RGS16 (11720943_a_at) / RFU RGS16 (11720944_at) / Fold change /veh RGS16 (11720944_at) / RFU, VPS4B / Fold change vs veh, VPS4B / RFU, CREB1 / Fold change vs veh, CREB1 / RFU, DNAJC13 / Fold change vs veh, DNAJC13 / RFU, GNAQ / Fold change vs veh, GNAQ / RFU, CDK5R1 / Fold change vs veh, CDK5R1 / RFU, ZRANB3 / Fold change vs veh, ZRANB3 / RFU, CUL4A / Fold change vs veh, CUL4A / RFU, CCNY / Fold change vs veh, CCNY / RFU, UFL1 / Fold change vs veh, UFL1 / RFU, COG3 / Fold change vs veh, COG3 / RFU, DIAPH2 / Fold change vs veh, DIAPH2 / RFU, SKA2 / Fold change vs veh, SKA2 / RFU, AFF3 / Fold change vs veh, AFF3 / RFU, LMF1 / Fold change vs veh, LMF1 / RFU, IPO11 / Fold change vs veh, IPO11 / RFU, DFFB / Fold change vs veh, DFFB / RFU, FOXP1 / Fold change vs veh, FOXP1 / RFU, CARD8 / Fold change vs veh, CARD8 / RFU, STRN3 / Fold change vs veh, STRN3 / RFU, ADK / Fold change vs veh, ADK / RFU, RASSF2 / Fold change vs veh, RASSF2 / RFU, WIPF1 / Fold change vs veh, WIPF1 / RFU, LARP1B / Fold change vs veh, LARP1B / RFU, RASA1 / Fold change vs veh, RASA1 / RFU, RB1 / Fold change vs veh, RB1 / RFU, PPFIA1 / Fold change vs veh, PPFIA1 / RFU, MAT2A / Fold change vs veh, MAT2A / RFU, CCT5 / Fold change vs veh, CCT5 / RFU, WDR92 / Fold change vs veh, WDR92 / RFU, CUX1 / Fold change vs veh, CUX1 / RFU, TTC7A / Fold change vs veh, TTC7A / RFU, TMEM135 / Fold change vs veh, TMEM135 / RFU, DEPTOR / Fold change vs veh, DEPTOR / RFU, CPM / Fold change vs veh, CPM / RFU, DNAJB6 / Fold change vs veh, DNAJB6 / RFU, CACNA2D3 / Fold change vs veh, CACNA2D3 / RFU, DTX4 / Fold change vs veh, DTX4 / RFU, TFCP2 / Fold change vs veh, TFCP2 / RFU, GMCL1 /// GMCL1P1 / Fold change vs veh, GMCL1 /// GMCL1P1 / RFU, AEBP2 / Fold change vs veh, AEBP2 / RFU, SNHG1 /// SNORD22 /// SNORD25 /// SNORD26 /// SNORD27 /// SNORD28 /// SNORD29 /// SNORD31 / Fold change vs veh, SNHG1 /// SNORD22 /// SNORD25 /// SNORD26 /// SNORD27 /// SNORD28 /// SNORD29 /// SNORD31 / Fold change (Aza/veh), C12orf56 (ProbeSet 11735607_a_at) / Fold change (ACY-1035/veh), C12orf56 (ProbeSet 11735607_a_at) / Fold change (Aza/veh), FGFR1OP (ProbeSet 11751329_s_at) / Fold change (ACY-1035/veh), FGFR1OP (ProbeSet 11751329_s_at) / Fold change (Aza/veh), VPS36 (ProbeSet 11739960_a_at) / Fold change (ACY-1035/veh), VPS36 (ProbeSet 11739960_a_at) / RFU SYPL1 (11715823_x_at) / Fold change /veh SYPL1 (11715823_x_at) / RFU IGFBP7 (11715501_s_at) / Fold change /veh IGFBP7 (11715501_s_at) / RFU REEP3 (11722064_at) / Fold change /veh REEP3 (11722064_at) / RFU IGLL1 (11728026_x_at) / Fold change /veh IGLL1 (11728026_x_at): dose or concentration left out as unconfirmed
Conditions: ProbeSet 11745789_a_at; LIST D

## Nc1ncn([C@@H]2O[C@H](CO)[C@@H](O)[C@H]2O)c(=O)n1 [azacitidine]
  RFU, TMEM135: 108.05 RFU
